The text below walks through data of patent publication US9353082B2, “Pharmaceutical compounds” (BIAL—PORTELA & CA, S.A., priority 2008, dated 2016).

The target in one assay is T1, FAAH (Rattus norvegicus, UniProt P97612).
T1 construct: Frozen brains (without cerebellum) from Wistar rats were used; from tissue; host or cells: Wistar rat brain (without cerebellum), washed membrane pellets
T1 sequence (P97612 1-579): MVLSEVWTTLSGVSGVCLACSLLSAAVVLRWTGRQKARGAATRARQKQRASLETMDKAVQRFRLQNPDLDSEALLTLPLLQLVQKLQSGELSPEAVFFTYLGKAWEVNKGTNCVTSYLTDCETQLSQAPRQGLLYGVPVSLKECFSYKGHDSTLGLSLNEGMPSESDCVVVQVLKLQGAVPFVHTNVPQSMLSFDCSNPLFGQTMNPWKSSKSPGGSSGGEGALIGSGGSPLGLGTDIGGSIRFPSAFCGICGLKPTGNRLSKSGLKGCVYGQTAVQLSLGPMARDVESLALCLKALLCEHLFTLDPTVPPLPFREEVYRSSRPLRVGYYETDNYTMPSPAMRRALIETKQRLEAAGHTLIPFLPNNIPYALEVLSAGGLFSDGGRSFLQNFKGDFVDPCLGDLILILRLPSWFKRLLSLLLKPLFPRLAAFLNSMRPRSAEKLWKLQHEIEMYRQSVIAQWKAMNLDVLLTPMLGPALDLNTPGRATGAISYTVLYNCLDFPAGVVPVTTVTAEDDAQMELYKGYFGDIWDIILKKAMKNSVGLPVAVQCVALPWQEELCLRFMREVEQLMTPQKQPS
The assay is described as follows: In vitro FAAH activity in rat brain membranes, 3H-AEA substrate, % of control. It counts as biochemical, Wistar rats. To be noted: 100 nM test compound, low value = strong inhibitor. In a few lines:
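Wistar rat brain membranes (5 μg protein) preincubated 15 min at 37 °C with compound at 10 μM or 0.1 μM (0.1% DMSO), then 2 μM AEA including 3H-AEA with 0.1% BSA, Tris pH 7.6, 10 min. 3H-ethanolamine counted after charcoal stop; % of no-compound control after blank subtraction.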
For the molecule `CC(C)N(Cc1ccccc1)C(=O)n1cnc(-c2ccc(Cl)cc2)c1` [Compound 249, N-benzyl-4-(4-chlorophenyl)-N-isopropyl-1H-imidazole-1-carboxamide], the “In Vitro FAAH activity, 100 nM” value is given as 95.8 % of control.
On the same count and under the same terms, to `CC(C)(C)N(Cc1ccccc1)C(=O)n1cnc(-c2ccccc2)c1` [Compound 251, N-benzyl-N-tert-butyl-4-phenyl-1H-imidazole-1-carboxamide] belongs 91.7 % of control; to `CC(C)(C)N(Cc1ccccc1)C(=O)n1cnc(-c2ccc(Cl)cc2)c1` [Compound 252, N-benzyl-N-tert-butyl-4-(4-chlorophenyl)-1H-imidazole-1-carboxamide], 83.6 % of control; to `O=C(N1CCS(=O)(=O)C1)n1cnc(-c2ccc(Cl)cc2)n1` [Compound 253, 3-(4-chlorophenyl)-1-[(1,1-dioxido-1,3-thiazolidin-3-yl)carbonyl]-1H-1,2,4-triazole], 107.7 % of control.
Consider `COc1cccc(-c2cn(C(=O)N(Cc3ccccc3)C(C)C)cn2)c1` [Compound 255, N-benzyl-N-isopropyl-4-(3-methoxyphenyl)-1H-imidazole-1-carboxamide], for which the “In Vitro FAAH activity, 100 nM” value is recorded as 96.7 % of control.
In the case of `COc1cccc(-c2cn(C(=O)N(Cc3ccccc3)C(C)(C)C)cn2)c1` [Compound 256, N-benzyl-N-tert-butyl-4-(3-methoxyphenyl)-1H-imidazole-1-carboxamide], the “In Vitro FAAH activity, 100 nM” value is listed as 105.6 % of control.
Still for that read-out and setting: next, `CCOc1cccc(-c2cccc(-c3cn(C(=O)N(C)C4CCCCC4)cn3)c2)c1` [Compound 258, N-cyclohexyl-4-(3'-ethoxybiphenyl-3-yl)-N-methyl-1H-imidazole-1-carboxamide]: 39.9 % of control.
For the molecule `CN(C(=O)n1cnc(-c2cccc(-c3cc(Cl)ccc3F)c2)c1)C1CCCCC1` [Compound 259, 4-(5′-chloro-2′-fluorobiphenyl-3-yl)-N-cyclohexyl-N-methyl-1H-imidazole-1-carboxamide], the “In Vitro FAAH activity, 100 nM” value is 33.7 % of control.
As for `CN(C(=O)n1cnc(-c2cccc(O)c2)c1)C1CCCC1` [Compound 262, N-cyclopentyl-4-(3-hydroxyphenyl)-N-methyl-1H-imidazole-1-carboxamide], the “In Vitro FAAH activity, 100 nM” value was 7.5 % of control.
The same measure, in the same setting: to `CC(C)N(Cc1ccccc1)C(=O)n1cnc(-c2cccc(O)c2)c1` [Compound 265, N-benzyl-4-(3-hydroxyphenyl)-N-isopropyl-1H-imidazole-1-carboxamide] belongs 99.6 % of control; to `CN(C(=O)n1nnc2ccccc21)C1CCCC1` [Compound 266, N-cyclopentyl-N-methyl-1H-benzo[d][1,2,3]triazole-1-carboxamide], 0.2 % of control.
`CC1(C)OCCN1C(=O)n1cnc(-c2ccccc2)c1Cl` [Compound 268, (5-chloro-4-phenyl-1H-imidazol-1-yl)(2,2-dimethyloxazolidin-3-yl)methanone]: the “In Vitro FAAH activity, 100 nM” value was 104.1 % of control.
Still for that read-out and setting: next, `CC1(C)COCN1C(=O)n1c(Cl)nc(-c2ccc(Cl)cc2)c1Cl` [Compound 269, (2,5-dichloro-4-(4-chlorophenyl)-1H-imidazol-1-yl)(4,4-dimethyloxazolidin-3-yl)methanone]: 106.2 % of control; `CCC1CN(C(=O)n2cnc(-c3ccccc3)c2)C(C)(C)O1` (centres unmarked) [Compound 270, (5-ethyl-2,2-dimethyloxazolidin-3-yl)(4-phenyl-1H-imidazol-1-yl)methanone]: 113.1 % of control.
On the same count and under the same terms, next, `COc1ccccc1-c1cn(C(=O)N(C)C2CCCCC2)cn1` [Compound 271, N-cyclohexyl-4-(2-methoxyphenyl)-N-methyl-1H-imidazole-1-carboxamide]: 55.8 % of control.

Staying with this assay, now noted: rat brain membranes, compound at 100 nM, low value = strong inhibitor.
As for `CN(C(=O)n1cnc(-c2ccc(Cl)c(Cl)c2)c1)C1CCCCC1` [Compound 274, N-cyclohexyl-4-(3,4-dichlorophenyl)-N-methyl-1H-imidazole-1-carboxamide], the “In Vitro 100 nM (FAAH activity, % of control)” value is given as 85 % of control.
Regarding `CN(C(=O)n1cnc(-c2ccc(Cl)cc2)c1)C1CCCCC1` [Compound 277, 4-(4-chlorophenyl)-N-cyclohexyl-N-methyl-1H-imidazole-1-carboxamide], the “In Vitro 100 nM (FAAH activity, % of control)” value was 72.1 % of control.
Turning to `CC1(C)COCN1C(=O)n1cnc(-c2ccc(Cl)cc2)c1Cl` [Compound 280, (5-chloro-4-(4-chlorophenyl)-1H-imidazol-1-yl)(4,4-dimethyloxazolidin-3-yl)methanone], the “In Vitro 100 nM (FAAH activity, % of control)” value is reported as 111.8 % of control.
The same measure, in the same setting: to `COc1ccc(-c2cn(C(=O)N(C)C3CCCC3)cn2)cc1OC` [Compound 281, N-cyclopentyl-4-(3,4-dimethoxyphenyl)-N-methyl-1H-imidazole-1-carboxamide] belongs 25.5 % of control.
For the molecule `CN(C(=O)n1cnc(-c2ccccc2)n1)C1CCCCC1` [Compound 283, N-cyclohexyl-N-methyl-3-phenyl-1H-1,2,4-triazole-1-carboxamide], the “In Vitro 100 nM (FAAH activity, % of control)” value is reported as 75.1 % of control.
Still for that read-out and setting: to `CC1(C)COCN1C(=O)n1cnc(-c2ccccc2)n1` [Compound 285, (4,4-dimethyloxazolidin-3-yl)(3-phenyl-1H-1,2,4-triazol-1-yl)methanone] belongs 85.4 % of control; to `CN(C(=O)n1cnc(-c2cccc(OCc3ccccc3)c2)c1)C12CC3CC(CC(C3)C1)C2` [Compound 288, 4-[3-(benzyloxy)phenyl]-N-methyl-N-tricyclo[3.3.1.13,7]dec-1-yl-1H-imidazole-1-carboxamide], 114.8 % of control; to `O=C(N1COC(c2ccccc2)C1)n1cnc(-c2ccc(F)c(F)c2)c1` (centres unmarked) [Compound 308, (4-(3,4-difluorophenyl)-1H-imidazol-1-yl)(5-phenyloxazolidin-3-yl)methanone], 2.5 % of control.
